Like-named read-outs stand apart in the source and are kept apart here. Marks after values point to notes of the source that are not given here. Bridge positions count the residues as written; N and C are the ends. Square brackets hold non-standard residues; d marks the D form. Peptide text beside a SMILES is read from it. pGlu = O=C1CC[C@@H](C(=O)O)N1
Key:
[1] = tested on: NFAT-Luciferace reporter (Ca^2+); details: Table 4; for NFAT Luciferace units: 24 hours after induction; for Fold Induction NFAT: vs vehicle
[2] = tested on: mouse adult neural stem cells; test: ATP-assay: proliferation (ATP levels) of neurosphere-derived cells; details: for Fold Induction ATP: vs vehicle
Adult neural stem cells = test: Flow cytometry for early neuronal marker Doublecortin; details: Table 6, 100 nM
[3] = tested on: cAMP activation in mouse adult neural stem cells; test: cAMP detection (HitHunter EFC Cyclic AMP Chemiluminescence Assay); details: Table 2
[4] = Table 4, concentration not given

CC[C@H](C)[C@H](NC(=O)[C@H](Cc1ccc(O)cc1)NC(=O)[C@@H](NC(=O)[C@H](CCCNC(=N)N)NC(=O)[C@@H](N)CC(=O)O)C(C)C)C(=O)N[C@@H](Cc1cnc[nH]1)C(=O)N1CCC[C@H]1C(=O)N[C@@H](Cc1ccccc1)C(=O)O [Angiotensin II (human synthetic)]
NFAT Luciferace units ([1]; concentration not given): 12.0 ± 3.7 Luciferace units | Fold Induction NFAT ([1]; concentration not given): 2.1* fold | ATP (nM ATP/well) [2, 4]: 11.7 ± 0.6 nM ATP/well | Fold Induction ATP [2, 4]: 1.2* fold | % Doublecortin-positive cells (Adult neural stem cells; 4 days): 3.1% | Fold Induction (Doublecortin-positive cells) (Adult neural stem cells; vs EGF/FGF): 1.2 fold

CC(C)C[C@H](NC(=O)CNC(=O)[C@H](C)NC(=O)[C@H](CC(C)C)NC(=O)[C@H](CCCNC(=N)N)NC(=O)[C@H](Cc1cnc[nH]1)NC(=O)[C@@H](NC(=O)[C@@H](N)C(C)C)[C@@H](C)O)C(=O)N[C@@H](CC(C)C)C(=O)N[C@@H](CO)C(=O)N[C@@H](CCCNC(=N)N)C(=O)N[C@@H](CO)C(=O)NCC(=O)NCC(=O)N[C@H](C(=O)N[C@H](C(=O)N[C@@H](CCCCN)C(=O)N[C@@H](CC(N)=O)C(=O)N[C@@H](CC(N)=O)C(=O)N[C@@H](Cc1ccccc1)C(=O)N[C@H](C(=O)N1CCC[C@H]1C(=O)N[C@H](C(=O)N[C@@H](CC(N)=O)C(=O)N[C@H](C(=O)NCC(=O)N[C@@H](CO)C(=O)N[C@@H](CCCCN)C(=O)N[C@@H](C)C(=O)N[C@@H](Cc1ccccc1)C(N)=O)C(C)C)[C@@H](C)O)C(C)C)C(C)C)C(C)C [CGRP (8-37)]
Fold Induction NFAT ([1]; 15 nM): 1.3** fold | Fold Induction ATP ([2]; Table 4, 100 nM): 1.2** fold

CC[C@H](C)[C@H](NC(=O)[C@H](C)NC(=O)[C@H](CC(=O)O)NC(=O)[C@H](C)NC(=O)[C@@H](N)Cc1ccc(O)cc1)C(=O)N[C@@H](Cc1ccccc1)C(=O)N[C@H](C(=O)N[C@@H](CC(N)=O)C(=O)N[C@@H](CO)C(=O)N[C@@H](Cc1ccc(O)cc1)C(=O)N[C@@H](CCCNC(=N)N)C(=O)N[C@@H](CCCCN)C(=O)N[C@H](C(=O)N[C@@H](CC(C)C)C(=O)NCC(=O)N[C@@H](CCC(N)=O)C(=O)N[C@@H](CC(C)C)C(=O)N[C@@H](CO)C(=O)N[C@@H](C)C(=O)N[C@@H](CCCNC(=N)N)C(=O)N[C@@H](CCCCN)C(=O)N[C@@H](CC(C)C)C(=O)N[C@@H](CC(C)C)C(=O)N[C@@H](CCC(N)=O)C(=O)N[C@@H](CC(=O)O)C(=O)N[C@H](C(=O)N[C@@H](CCSC)C(=O)N[C@@H](CO)C(=O)N[C@@H](CCCNC(=N)N)C(=O)N[C@@H](CCC(N)=O)C(=O)N[C@@H](CCC(N)=O)C(=O)NCC(=O)N[C@@H](CCC(=O)O)C(=O)N[C@@H](CO)C(=O)N[C@@H](CC(N)=O)C(=O)N[C@@H](CCC(N)=O)C(=O)N[C@@H](CCC(=O)O)C(=O)N[C@@H](CCCNC(=N)N)C(=O)NCC(=O)N[C@@H](C)C(=O)N[C@@H](CCCNC(=N)N)C(=O)N[C@@H](C)C(=O)N[C@@H](CCCNC(=N)N)C(=O)N[C@@H](CC(C)C)C(N)=O)[C@@H](C)CC)C(C)C)[C@@H](C)O [Growth Hormone Releasing Factor]
NFAT Luciferace units ([1]; 15 nM): 4.5 ± 0.6 Luciferace units | ATP (nM ATP/well) ([2]; Table 4, 10 nM): 12.6 ± 0.9 nM ATP/well

CC[C@H](C)[C@H](NC(=O)[C@@H](NC(=O)[C@H](CC(=O)O)NC(=O)[C@H](CCC(N)=O)NC(=O)[C@H](Cc1c[nH]cn1)NC(=O)[C@@H]1CSSC[C@H](N)C(=O)N[C@@H](CO)C(=O)N[C@H]2CSSC[C@H](NC(=O)[C@H](CCC(=O)O)NC(=O)[C@H](CCCCN)NC(=O)[C@H](CC(=O)O)NC(=O)[C@H]([C@@H](C)O)NC(=O)[C@H](CCSC)NC(=O)[C@H](CC(=O)O)NC(=O)[C@H](CCCCN)NC2=O)C(=O)N[C@@H](CC(C)C)C(=O)N[C@@H](Cc2ccc(O)cc2)C(=O)N[C@@H](Cc2ccccc2)C(=O)N1)C(C)C)C(=O)N[C@@H](Cc1c[nH]c2ccccc12)C(=O)O [Sarafotoxin S6b] (H-CSCKDMTDKECLYFCHQDVIW-OH; disulfide 1-15, 3-11 (inferred); N-terminus and C-terminus assumed)
NFAT Luciferace units ([1]; 100 nM): 13.4 ± 7.0 Luciferace units | cAMP (pmol/well) ([3]; 100 nM (cAMP concentration)): 0.43 ± 0.22 pmol/well | ATP (nM ATP/well) ([2]; Table 2, 100 nM, 4 days): 43.0 ± 7.8 nM ATP/well | ATP (nM ATP/well) ([2]; Table 4, 100 nM): 43.0 ± 7.8 nM ATP/well

CC[C@H](C)[C@H](NC(=O)[C@@H](NC(=O)[C@H](CC(=O)O)NC(=O)[C@H](CCC(N)=O)NC(=O)[C@H](Cc1c[nH]cn1)NC(=O)[C@@H]1CSSC[C@H](N)C(=O)N[C@@H]([C@@H](C)O)C(=O)N[C@H]2CSSC[C@H](NC(=O)[C@H](CCC(=O)O)NC(=O)[C@H](CCC(=O)O)NC(=O)[C@H](CC(=O)O)NC(=O)[C@H]([C@@H](C)O)NC(=O)[C@H](CCSC)NC(=O)[C@H](CC(=O)O)NC(=O)[C@H](CC(N)=O)NC2=O)C(=O)N[C@@H](CC(C)C)C(=O)N[C@@H](CC(N)=O)C(=O)N[C@@H](Cc2ccccc2)C(=O)N1)C(C)C)C(=O)N[C@@H](Cc1c[nH]c2ccccc12)C(=O)O [Sarafotoxin S6c]
NFAT Luciferace units ([1]; 1 nM): 8.3 ± 2.0 Luciferace units | cAMP (pmol/well) ([3]; 10 nM (cAMP concentration)): 0.21 ± 0.03 pmol/well | ATP (nM ATP/well) ([2]; Table 2, 10 nM, 4 days): 39.9 ± 6.6 nM ATP/well | ATP (nM ATP/well) ([2]; Table 4, 1 nM): 41.6 ± 4.8 nM ATP/well

CSCC[C@H](NC(=O)[C@H](CC(C)C)NC(=O)[C@@H]1CCCN1C(=O)[C@H](Cc1ccccc1)NC(=O)[C@H](Cc1ccccc1)NC(=O)[C@@H]1CCC(=O)N1)C(N)=O [Septide] ([pGlu]FFPLM-NH2; C-terminus assumed)
NFAT Luciferace units ([1]; 100 nM): 3.7 ± 0.9 Luciferace units | ATP (nM ATP/well) ([2]; Table 4, 100 nM): 25.1 ± 3.1 nM ATP/well

CSCC[C@H](NC(=O)[C@H](C)NC(=O)[C@@H]1CCCN1C(=O)[C@H](CC(N)=O)NC(=O)[C@H](CO)NC(=O)[C@H](CC(N)=O)NC(=O)[C@H](C)NC(=O)[C@@H](N)CO)C(=O)N[C@@H](C)C(=O)N1CCC[C@H]1C(=O)N[C@@H](CCCNC(=N)N)C(=O)N[C@@H](CCC(=O)O)C(=O)N[C@@H](CCCNC(=N)N)C(=O)N[C@@H](CCCCN)C(=O)N[C@@H](C)C(=O)NCC(=O)N[C@H]1CSSC[C@@H](C(=O)O)NC(=O)[C@H](CO)NC(=O)[C@H]([C@@H](C)O)NC(=O)[C@H](Cc2ccccc2)NC(=O)[C@H]([C@@H](C)O)NC(=O)[C@H](CCCCN)NC(=O)[C@H](Cc2c[nH]c3ccccc23)NC(=O)[C@H](Cc2ccccc2)NC(=O)[C@H](Cc2ccccc2)NC(=O)[C@H](CC(N)=O)NC(=O)[C@H](CCCCN)NC1=O [Somatostatin-28]
NFAT Luciferace units ([1]; 100 nM): 3.0 ± 0.4 Luciferace units | Fold Induction NFAT ([1]; 100 nM): 1.6* fold | ATP (nM ATP/well) ([2]; Table 4, 10 nM): 17.1 ± 1.5 nM ATP/well | Fold Induction ATP ([2]; Table 4, 10 nM): 1.2* fold

— patent US6969702B2, “Compounds and methods for increasing neurogenesis” (priority 2002, dated 2005)
